Data taken from paper PMC7577350 (ACS chemical biology, 2013).
Like-named read-outs stand apart in the source and are kept apart here. Numbered stars: 1 amine (or outer) side, 2 acyl side, 3 side chain; on linkers, the order of the positions; unused ones are H or OH. Bridge positions count the residues as written; N and C are the ends. Square brackets hold non-standard residues; d marks the D form. Peptide text beside a SMILES is read from it. Nle(6-ylidene) = O=C([C@H](CCCC=[*:3])N[*:1])[*:2]; Gly(pent-4-enyl) = C=CCCC[C@H](N)C(=O)O

How the values were obtained:
[1] = tested on: HIV-1 (NL4-3 strain); experiment: MTT anti-HIV assay; format: cell-based; settings: read-out: EC50 (μM) MTT assay; MT-4 cells, HIV-1 NL4-3, Table 3
[2] = tested on: HIV-1 (NL4-3 strain); format: cell-based; settings: read-out: EC50 (μM) p24 assay, MT-4 cells
[3] = tested on: mock-infected MT-4 cells; experiment: MTT cytotoxicity assay; format: cell-based
[4] = tested on: HIV-1 NL4-3; experiment: MT-4 Luc assay; format: cell-based; settings: MT-4 Luc cells; for concentrations at which significant anti-HIV activity was shown: luciferase signal
[5] = target: T1, HIV-1 IN (Human immunodeficiency virus type 1 group M subtype B, UniProt P04585); experiment: Integrase assay, 3′-end processing reaction; format: biochemical
[6] = target: T1, HIV-1 IN; experiment: Integrase assay, strand transfer reaction; format: biochemical
[7] = MTT cytotoxicity assay; format: cell-based
[8] = CC50 (μM) MTT assay, mock infected MT-4 cells, Table 3
[9] = both 3′-end processing and strand transfer reactions
[10] = CC50 (μM) MTT assay, mock infected MT-4 cells, Table 4

SMILES: Cc1cn([C@H]2C[C@H](N=[N+]=[N-])[C@@H](CO)O2)c(=O)[nH]c1=O [AZT, reference compound]
- EC50 [1]: 0.07 µM
- EC50 ([2]; HIV-1 NL4-3, Table 3): 0.02 µM
- EC50 ([2]; HIV-1 NL4-3, Table 4): 0.29 µM
- CC50 [3]: > 100 µM

SMILES: CC[C@H](C)[C@H](NC(=O)[C@H](C)NC(=O)[C@H](CCC(=O)O)NC(C)=O)C(=O)N[C@H](C(=O)N[C@@H](CCCNC(=N)N)C(=O)N[C@H](C(=O)N[C@@H](CC(C)C)C(=O)N[C@@H](CCC(N)=O)C(=O)N[C@@H](CCC(N)=O)C(=O)N[C@@H](CC(C)C)C(=O)N[C@@H](CC(C)C)C(=O)N[C@@H](Cc1ccccc1)C(=O)N[C@H](C(=O)N[C@@H](Cc1c[nH]cn1)C(=O)N[C@@H](Cc1ccccc1)C(=O)N[C@@H](CCCNC(=N)N)C(=O)N[C@H](C(=O)NCC(N)=O)[C@@H](C)CC)[C@@H](C)CC)[C@@H](C)CC)[C@@H](C)CC [compound 1]
- EC50 [1]: > 10 µM
- anti-HIV activity at concentrations below 10 μM ([4]; below 10 μM): no significant anti-HIV activity
- EC50 ([2]; HIV-1 NL4-3, Table 3): > 10 µM
- EC50 ([2]; HIV-1 NL4-3, Table 4): > 20 µM
- IC50 ([5]; IC50 3′-end processing, Table 2): 2.6 ± 0.2 µM
- IC50 ([5]; IC50 (μM) 3′-end processing, Table 3 batch): 1.62 ± 0.26 µM
- IC50 ([5]; IC50 (μM) 3′-end processing, Table 4 batch): 2 ± 0.2 µM
- IC50 ([6]; IC50 (μM) strand transfer, Table 3 batch): 1.34 ± 0.2 µM
- IC50 ([6]; IC50 (μM) strand transfer, Table 4 batch): 2.2 ± 0.2 µM
- IC50 ([6]; IC50 strand transfer, Table 2): 1.1 ± 0.08 µM
- CC50 [7, 8]: > 10 µM

SMILES: CC[C@H](C)[C@H](NC(=O)[C@H](C)NC(=O)[C@H](CCC(=O)O)NC(C)=O)C(=O)N[C@H](C(=O)N[C@@H](CCCNC(=N)N)C(=O)N[C@H](C(=O)N[C@@H](CC(C)C)C(=O)N[C@@H](CCC(N)=O)C(=O)N[C@@H](CCC(N)=O)C(=O)N[C@@H](CC(C)C)C(=O)N[C@@H](CC(C)C)C(=O)N[C@@H](Cc1ccccc1)C(=O)N[C@H](C(=O)N[C@@H](Cc1c[nH]cn1)C(=O)N[C@@H](Cc1ccccc1)C(=O)N[C@@H](CCCNC(=N)N)C(=O)N[C@H](C(=O)NCC(=O)N[C@@H](CCCNC(=N)N)C(=O)N[C@@H](CCCNC(=N)N)C(=O)N[C@@H](CCCNC(=N)N)C(=O)N[C@@H](CCCNC(=N)N)C(=O)N[C@@H](CCCNC(=N)N)C(=O)N[C@@H](CCCNC(=N)N)C(=O)N[C@@H](CCCNC(=N)N)C(=O)N[C@@H](CCCNC(=N)N)C(N)=O)[C@@H](C)CC)[C@@H](C)CC)[C@@H](C)CC)[C@@H](C)CC [compound 2]
- concentrations at which significant anti-HIV activity was shown [4]: above 2.5 μM
- inhibitory levels × higher than those of compound 1 [5, 9]: approximately 30 ×
- CC50 [7]: 5.91 µM

SMILES: CC[C@H](C)[C@H](NC(=O)[C@H](C)NC(=O)[C@H](CCC(=O)O)NC(C)=O)C(=O)N[C@H]1CCCC=CCCC[C@@H](C(=O)N[C@@H](CCC(N)=O)C(=O)N[C@@H](CC(C)C)C(=O)N[C@@H](CC(C)C)C(=O)N[C@@H](Cc2ccccc2)C(=O)N[C@H](C(=O)N[C@@H](Cc2c[nH]cn2)C(=O)N[C@@H](Cc2ccccc2)C(=O)N[C@@H](CCCNC(=N)N)C(=O)N[C@H](C(=O)NCC(=O)N[C@@H](CCCNC(=N)N)C(=O)N[C@@H](CCCNC(=N)N)C(=O)N[C@@H](CCCNC(=N)N)C(=O)N[C@@H](CCCNC(=N)N)C(=O)N[C@@H](CCCNC(=N)N)C(=O)N[C@@H](CCCNC(=N)N)C(=O)N[C@@H](CCCNC(=N)N)C(=O)N[C@@H](CCCNC(=N)N)C(N)=O)[C@@H](C)CC)[C@@H](C)CC)NC(=O)[C@H](CC(C)C)NC(=O)[C@H]([C@@H](C)CC)NC(=O)[C@H](CCCNC(=N)N)NC1=O [compound 17] (Ac-EAI[Nle(6-ylidene)]RIL[Nle(6-ylidene)]QLLFIHFRIGRRRRRRRR-NH2; staple 4-8)
- concentrations at which significant anti-HIV activity was shown [4]: above 1.25 μM
- CC50 [7, 8]: 7.04 µM
- CC50 [7, 10]: 6.9 µM

SMILES: CC[C@H](C)[C@H](NC(=O)[C@H](C)NC(=O)[C@H](CCC(=O)O)NC(C)=O)C(=O)N[C@H]1CCCC=CCCC[C@@H](C(=O)N[C@@H](CCC(N)=O)C(=O)N[C@@H](CC(C)C)C(=O)N[C@@H](CC(C)C)C(=O)N[C@@H](Cc2ccccc2)C(=O)N[C@H](C(=O)N[C@@H](Cc2c[nH]cn2)C(=O)N[C@@H](Cc2ccccc2)C(=O)N[C@@H](CCCNC(=N)N)C(=O)N[C@H](C(=O)NCC(=O)N[C@@H](CCCNC(=N)N)C(=O)N[C@@H](CCC(=O)O)C(=O)N[C@@H](CCCNC(=N)N)C(=O)N[C@@H](CCC(=O)O)C(=O)N[C@@H](CCCNC(=N)N)C(=O)N[C@@H](CCC(=O)O)C(=O)N[C@@H](CCCNC(=N)N)C(=O)N[C@@H](CCC(=O)O)C(N)=O)[C@@H](C)CC)[C@@H](C)CC)NC(=O)[C@H](CC(C)C)NC(=O)[C@H]([C@@H](C)CC)NC(=O)[C@H](CCCNC(=N)N)NC1=O [compound 18] (Ac-EAI[Nle(6-ylidene)]RIL[Nle(6-ylidene)]QLLFIHFRIGRERERERE-NH2; staple 4-8)
- concentrations at which significant anti-HIV activity was shown [4]: above 5 μM
- CC50 [7, 8]: > 10 µM

SMILES: C=CCCC[C@H](NC(=O)[C@H](CC(C)C)NC(=O)[C@@H](NC(=O)[C@H](CCCNC(=N)N)NC(=O)[C@H](CCCC=C)NC(=O)[C@@H](NC(=O)[C@H](C)NC(=O)[C@H](CCC(=O)O)NC(C)=O)[C@@H](C)CC)[C@@H](C)CC)C(=O)N[C@@H](CCC(N)=O)C(=O)N[C@@H](CC(C)C)C(=O)N[C@@H](CC(C)C)C(=O)N[C@@H](Cc1ccccc1)C(=O)N[C@H](C(=O)N[C@@H](Cc1c[nH]cn1)C(=O)N[C@@H](Cc1ccccc1)C(=O)N[C@@H](CCCNC(=N)N)C(=O)N[C@H](C(=O)NCC(=O)N[C@@H](CCCNC(=N)N)C(=O)N[C@@H](CCC(=O)O)C(=O)N[C@@H](CCCNC(=N)N)C(=O)N[C@@H](CCC(=O)O)C(=O)N[C@@H](CCCNC(=N)N)C(=O)N[C@@H](CCC(=O)O)C(=O)N[C@@H](CCCNC(=N)N)C(=O)N[C@@H](CCC(=O)O)C(N)=O)[C@@H](C)CC)[C@@H](C)CC [compound 19] (Ac-EAI[Gly(pent-4-enyl)]RIL[Gly(pent-4-enyl)]QLLFIHFRIGRERERERE-NH2)
- concentrations at which significant anti-HIV activity was shown [4]: 10 µM
- CC50 [7, 8]: > 10 µM

SMILES: CC[C@H](C)[C@H](NC(=O)[C@H](C)NC(=O)[C@H](CCC(=O)O)NC(C)=O)C(=O)N[C@H]1CCCC=CCCC[C@@H](C(=O)N[C@@H](CCC(N)=O)C(=O)N[C@@H](CC(C)C)C(=O)N[C@@H](CC(C)C)C(=O)N[C@@H](Cc2ccccc2)C(=O)N[C@H](C(=O)N[C@@H](Cc2c[nH]cn2)C(=O)N[C@@H](Cc2ccccc2)C(=O)N[C@@H](CCCNC(=N)N)C(=O)N[C@H](C(=O)NCC(=O)N[C@@H](CCCNC(=N)N)C(=O)N[C@@H](CCCNC(=N)N)C(=O)N[C@@H](CCCNC(=N)N)C(=O)N[C@@H](CCCNC(=N)N)C(N)=O)[C@@H](C)CC)[C@@H](C)CC)NC(=O)[C@H](CC(C)C)NC(=O)[C@H]([C@@H](C)CC)NC(=O)[C@H](CCCNC(=N)N)NC1=O [compound 20] (Ac-EAI[Nle(6-ylidene)]RIL[Nle(6-ylidene)]QLLFIHFRIGRRRR-NH2; staple 4-8)
- × higher inhibition than compound 6S [5, 9]: 3–6 ×
- CC50 [7, 10]: 16 µM

SMILES: CC[C@H](C)[C@H](NC(=O)[C@H](C)NC(=O)[C@H](CCC(=O)O)NC(C)=O)C(=O)N[C@H]1CCCC=CCCC[C@@H](C(=O)N[C@@H](CCC(N)=O)C(=O)N[C@@H](CC(C)C)C(=O)N[C@@H](CC(C)C)C(=O)N[C@@H](Cc2ccccc2)C(=O)N[C@H](C(=O)N[C@@H](Cc2c[nH]cn2)C(=O)N[C@@H](Cc2ccccc2)C(=O)N[C@@H](CCCNC(=N)N)C(=O)N[C@H](C(=O)NCC(=O)N[C@@H](CCCNC(=N)N)C(=O)N[C@@H](CCCNC(=N)N)C(=O)N[C@@H](CCCNC(=N)N)C(=O)N[C@@H](CCCNC(=N)N)C(=O)N[C@@H](CCCNC(=N)N)C(N)=O)[C@@H](C)CC)[C@@H](C)CC)NC(=O)[C@H](CC(C)C)NC(=O)[C@H]([C@@H](C)CC)NC(=O)[C@H](CCCNC(=N)N)NC1=O [compound 21] (Ac-EAI[Nle(6-ylidene)]RIL[Nle(6-ylidene)]QLLFIHFRIGRRRRR-NH2; staple 4-8)
- × higher inhibition than compound 6S [5, 9]: 3–6 ×
- CC50 [7, 10]: 15 µM

SMILES: CC[C@H](C)[C@H](NC(=O)[C@H](C)NC(=O)[C@H](CCC(=O)O)NC(C)=O)C(=O)N[C@H]1CCCC=CCCC[C@@H](C(=O)N[C@@H](CCC(N)=O)C(=O)N[C@@H](CC(C)C)C(=O)N[C@@H](CC(C)C)C(=O)N[C@@H](Cc2ccccc2)C(=O)N[C@H](C(=O)N[C@@H](Cc2c[nH]cn2)C(=O)N[C@@H](Cc2ccccc2)C(=O)N[C@@H](CCCNC(=N)N)C(=O)N[C@H](C(=O)NCC(=O)N[C@@H](CCCNC(=N)N)C(=O)N[C@@H](CCCNC(=N)N)C(=O)N[C@@H](CCCNC(=N)N)C(=O)N[C@@H](CCCNC(=N)N)C(=O)N[C@@H](CCCNC(=N)N)C(=O)N[C@@H](CCCNC(=N)N)C(N)=O)[C@@H](C)CC)[C@@H](C)CC)NC(=O)[C@H](CC(C)C)NC(=O)[C@H]([C@@H](C)CC)NC(=O)[C@H](CCCNC(=N)N)NC1=O [compound 22] (Ac-EAI[Nle(6-ylidene)]RIL[Nle(6-ylidene)]QLLFIHFRIGRRRRRR-NH2; staple 4-8)
- × higher inhibitory levels than compounds 20 and 21 ([5]; both reactions): 2 ×
- CC50 [7, 10]: 13 µM

SMILES: CC[C@H](C)[C@H](NC(=O)[C@H](C)NC(=O)[C@H](CCC(=O)O)NC(C)=O)C(=O)N[C@H]1CCCC=CCCC[C@@H](C(=O)N[C@@H](CCC(N)=O)C(=O)N[C@@H](CC(C)C)C(=O)N[C@@H](CC(C)C)C(=O)N[C@@H](Cc2ccccc2)C(=O)N[C@H](C(=O)N[C@@H](Cc2c[nH]cn2)C(=O)N[C@@H](Cc2ccccc2)C(=O)N[C@@H](CCCNC(=N)N)C(=O)N[C@H](C(=O)NCC(=O)N[C@@H](CCCNC(=N)N)C(=O)N[C@@H](CCCNC(=N)N)C(=O)N[C@@H](CCCNC(=N)N)C(=O)N[C@@H](CCCNC(=N)N)C(=O)N[C@@H](CCCNC(=N)N)C(=O)N[C@@H](CCCNC(=N)N)C(=O)N[C@@H](CCCNC(=N)N)C(N)=O)[C@@H](C)CC)[C@@H](C)CC)NC(=O)[C@H](CC(C)C)NC(=O)[C@H]([C@@H](C)CC)NC(=O)[C@H](CCCNC(=N)N)NC1=O [compound 23] (Ac-EAI[Nle(6-ylidene)]RIL[Nle(6-ylidene)]QLLFIHFRIGRRRRRRR-NH2; staple 4-8)
- CC50 [7, 10]: 12 µM
